In ChEMBL document CHEMBL1154261, “Halogenated fatty acid amides and cyclic depsipeptides from an eastern Caribbean collection of the cyanobacterium Lyngbya majuscula” (J Nat Prod, 2009):
Starred links: 1 amine or outer side, 2 acyl side, 3 side chain; linkers in the order of their positions; H or OH if unused. Non-standard residues stand in square brackets, D forms with d. Residues, ends and D or L forms follow the SMILES beside them. X1 = CCC[C@@H](N[*:1])[C@H](C)C(=O)[*:2]; Met(O2) = CS(=O)(=O)CC[C@H](N)C(=O)O; dNMeF = CN[C@H](Cc1ccccc1)C(=O)O; NMeL = CN[C@@H](CC(C)C)C(=O)O; dHiv = CC(C)[C@@H](O)C(=O)O

What was measured:
[1] = test system: HEK293; assay: Cytotoxicity against HEK293 cells after 48 hrs by resazurin conversion-based fluorometric assay; type: cell-based; settings: Homo sapiens, HEK293, 48 h
[2] = test system: Spodoptera exigua; assay: Antilepidopteran activity against beet armyworm neonates assessed as mortality rate at 1.0 mg/ml after 5 days; type: functional
[3] = test system: HEK293; assay: Cytotoxicity against HEK293 cells at 400 nM after 48 hrs by resazurin conversion-based fluorometric assay; type: cell-based; settings: human, hek293, 48 h, 0.4 µM

SMILES: CCC/C(=C\Cl)CCCC(=O)NC(C)CC(C)C(=O)C(C)CC/C=C/Cl (stereo not drawn) [GRENADAMIDE]
- IC50 [1]: ≥ 100 µM
- Activity [2]: 50%

SMILES: COc1cccc2c1C(=O)c1c(O)c3c(c(O)c1C2=O)C[C@@](O)(C(C)=O)C[C@@H]3O[C@H]1C[C@H](N)[C@H](O)[C@H](C)O1 [DAUNORUBICIN]
- Activity [3]: 82%

SMILES: C[C@@H]1C(=O)O[C@@H](C(C)(C)O)c2nc(cs2)C(=O)OC(C)(C)[C@H](O)c2nc(cs2)C(=O)O[C@H]1CCCC(C)(Cl)Cl [DEACETYLHECTOCHLORIN]
- IC50 [1]: 6 µM

SMILES: CC(CC(=O)N(C)[C@@H]1C(=O)N(C)[C@@H](C(C)C)C(=O)N[C@H](C)C(=O)N(C)[C@@H](C)C(=O)N(C)[C@H](Cc2ccccc2)C(=O)N[C@@H](C)C(=O)O[C@@H]1C)C(Cl)Cl (stereo partly drawn) [ITRALAMIDE A]
- IC50 [1]: 54 µM

SMILES: C=CCCC(C)C(=O)C(C)CC(C)NC(=O)CCC/C(=C/Cl)CCC (stereo not drawn) [GRENADAMIDE B]
- IC50 [1]: ≥ 100 µM
- Activity [2]: 38%

SMILES: CCC[C@H]1NC(=O)[C@H](C)NC(=O)[C@H](CC(C)C)N(C)C(=O)[C@H](Cc2ccccc2)NC(=O)[C@H](CCS(C)(=O)=O)NC(=O)[C@@H](Cc2ccccc2)N(C)C(=O)[C@@H](C(C)C)OC(=O)[C@H]1C [CARRIEBOWMIDE SULFONE] (cyclo(A[X1][dHiv][dNMeF][Met(O2)]F[NMeL]))
- IC50 [1]: > 50 µM
